Data taken from PubChem BioAssay (NCI).
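The compound was tested at five concentrations on cells cultured in 96-well plates, with a 48-hour exposure period. TGI marks complete inhibition of growth.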

How the values were obtained:
Experiment in all cases: NCI anticancer screen, dose series, 48 h
[1] = tested on: A498 renal
[2] = tested on: HCT-15 colon
[3] = tested on: HT29 colon
[4] = tested on: NCI-H522 lung
[5] = tested on: SNB-75 CNS
[6] = tested on: SN12C renal
[7] = tested on: SF-539 CNS
[8] = tested on: SNB-78 CNS
[9] = tested on: SF-295 CNS
[10] = tested on: KM12 colon
[11] = tested on: LXFL 529 NSCLC
[12] = tested on: UO-31 renal
[13] = tested on: OVCAR-3 ovarian
[14] = tested on: 786-0 renal
[15] = tested on: UACC-257 melanoma
[16] = tested on: RXF 393 renal
[17] = tested on: LOX IMVI melanoma
[18] = tested on: SF-268 CNS
[19] = tested on: HCC-2998 colon
[20] = tested on: CCRF-CEM leukemia
[21] = tested on: RXF-631 renal
[22] = tested on: NCI-H460 lung
[23] = tested on: UACC-62 melanoma
[24] = tested on: TK-10 renal
[25] = tested on: OVCAR-5 ovarian
[26] = tested on: OVCAR-4 ovarian
[27] = tested on: HL-60(TB) leukemia
[28] = tested on: A549 NSCLC
[29] = tested on: HOP-18 NSCLC
[30] = tested on: U251 CNS
[31] = tested on: OVCAR-8 ovarian
[32] = tested on: HOP-62 NSCLC
[33] = tested on: HCT-116 colon
[34] = tested on: CAKI-1 renal
[35] = tested on: MALME-3M melanoma
[36] = tested on: SK-OV-3 ovarian
[37] = tested on: SNB-19 CNS
[38] = tested on: DMS 114 small cell lung
[39] = tested on: SW-620 colon
[40] = tested on: KM20L2 colon
[41] = tested on: DMS 273 small cell lung
[42] = tested on: IGROV1 ovarian
[43] = tested on: M14 melanoma
[44] = tested on: SK-MEL-5 melanoma
[45] = tested on: NCI-H226 lung
[46] = tested on: EKVX NSCLC
[47] = tested on: RPMI-8226 leukemia
[48] = tested on: NCI-H23 lung
[49] = tested on: COLO 205 colon
[50] = tested on: MOLT-4 leukemia
[51] = tested on: K-562 leukemia
[52] = tested on: ACHN renal
[53] = tested on: SK-MEL-2 melanoma

Structure (SMILES): CC1(C)C2CCC13C(=O)C1OC3(C2)C2C(=O)N(c3ccccc3)C(=O)C12 (stereo not drawn)
- TGI [1]: > 100 µM
- TGI [2]: > 100 µM
- TGI [3]: > 100 µM
- TGI [4]: 49.1 µM
- TGI [5]: > 100 µM
- TGI [6]: > 100 µM
- TGI [7]: > 100 µM
- TGI [8]: > 100 µM
- TGI [9]: > 100 µM
- TGI [10]: > 100 µM
- TGI [11]: > 100 µM
- TGI [12]: > 100 µM
- TGI [13]: > 100 µM
- TGI [14]: > 100 µM
- TGI [15]: > 100 µM
- TGI [16]: > 100 µM
- TGI [17]: > 100 µM
- TGI [18]: > 100 µM
- TGI [19]: > 100 µM
- TGI [20]: > 100 µM
- TGI [21]: > 100 µM
- TGI [22]: > 100 µM
- TGI [23]: > 100 µM
- TGI [24]: > 100 µM
- TGI [25]: > 100 µM
- TGI [26]: > 100 µM
- TGI [27]: > 100 µM
- TGI [28]: > 100 µM
- TGI [29]: > 100 µM
- TGI [30]: > 100 µM
- TGI [31]: > 100 µM
- TGI [32]: > 100 µM
- TGI [33]: > 100 µM
- TGI [34]: > 100 µM
- TGI [35]: > 100 µM
- TGI [36]: > 100 µM
- TGI [37]: > 100 µM
- TGI [38]: > 100 µM
- TGI [39]: > 100 µM
- TGI [40]: > 100 µM
- TGI [41]: > 100 µM
- TGI [42]: > 100 µM
- TGI [43]: > 100 µM
- TGI [44]: > 100 µM
- TGI [45]: > 100 µM
- TGI [46]: > 100 µM
- TGI [47]: > 100 µM
- TGI [48]: > 100 µM
- TGI [49]: > 100 µM
- TGI [50]: > 100 µM
- TGI [51]: > 100 µM
- TGI [52]: > 100 µM
- TGI [53]: > 100 µM
